The values below come from ChEMBL document CHEMBL1201862, “PubChem BioAssay data set” (2004).

Usually GI50 stands for the concentration giving 50% growth inhibition.

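96-well plates; 48 h exposure; 5 concentrations. Endpoints by linear interpolation between flanking doses. Not reached: highest tested concentration assigned. Abbreviation: GI50, concentration required for 50% inhibition of growth.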 The source made the active and inactive calls. Cut-off read from the data, not from the text of the source: active = GI50 up to about 1.1 µM and inactive = higher.

Among the test systems are XF498; Hs-578T; PC-3; DU-145; BT-549; T47D; LXFL 529.
Holding throughout (assay): DTP human tumour cell line panel, 48 h

Turning to `O=P1(Oc2ccc(Cl)cc2Cl)Oc2cc3ccccc3cc2O1`, the GI50 in the assay on XF498 is 33.1 µM (inactive).

Take `Cc1nc(O)nc(N/N=C/c2ccc(Cl)cc2)c1C(=O)NC(C)(CO)CO`: the GI50 in the assay on Hs-578T is > 100 µM (inactive); with PC-3, > 100 µM (inactive); in the assay on DU-145, > 100 µM (inactive); with BT-549, > 100 µM (inactive); in the assay on T47D, 60.7 µM (inactive).

Consider `CC1=C(O)C(=O)[C@@H]2O[C@@H]2C1=O`, for which, in the assay with XF498, the GI50 is 10.4 µM (inactive).

`CN(C)c1ccc(/C=C/C(=O)O)cc1`: the GI50 in the assay with LXFL 529 and in the assay on XF498 was > 100 µM (inactive) each time.

On to `N#CC(OC1OC(COC2OC(CO)C(O)C(O)C2O)C(O)C(O)C1O)c1ccccc1` (stereo not drawn), for which, in the assay on XF498, the GI50 is > 225 µM (inactive).

As for `NC(Cc1ccc(CP(=O)(O)O)cc1)C(=O)O` (stereo not drawn), the GI50 in the assay with Hs-578T, with PC-3, with DU-145 and in the assay on T47D was > 100 µM (inactive) each time.

In the case of `CCOC(=O)/C=C/CC(C)(C)COC(C)=O`, the GI50 in the assay on Hs-578T is 0.406 µM (active); in the assay with PC-3, > 10 µM (inactive); in the assay with DU-145, 7.43 µM (inactive); with T47D it was > 10 µM (inactive).

As to `O=C1C(Cl)N(c2cccc([N+](=O)[O-])c2)C1c1c[nH]c2ccccc12` (stereo not drawn), the GI50 with LXFL 529 is 6.25 µM (inactive).

With `COC(=O)[C@H]1C=NN[C@@H]1C(=O)N1[C@H]2CC3CC[C@@]2(CS1(=O)=O)C3(C)C`, the GI50 in the assay on Hs-578T, in the assay with PC-3, in the assay with DU-145 and in the assay with BT-549 was > 100 µM (inactive) each time.
